Data published in publication PMC11477875, “Ecotoxicity and Mutagenicity Assessment of Novel Antifungal Agents VT-1161 and T-2307” (Molecules, 2024).
≈ marks a conversion by molar mass, not a printed value. Like-named read-outs stand apart in the source and are kept apart here.

Columns and labels:
D. magna [1] = test: Literature D. magna toxicity data used for hazard ranking; assay type: in vivo, Daphnia magna; conditions: for Hazard Ranking: GHS, from literature EC50 D. magna 48 h
Text: (§1) The hazard ranking of antifungal compounds is crucial for understanding their environmental impact and guiding regulatory decisions. This study utilizes data from existing literature to classify the effective concentrations (EC50) of various antifungal compounds according to the Globally Harmonized System of Classification and Labelling of Chemicals (GHS).
(§2) Furthermore, multiple fungicide compounds were classified according to the Globally Harmonized System of Classification and Labeling of Chemicals (GHS) to compare the hazard ranking of substances currently on the market and the two substances of this study.

D. magna [2] = conditions: cited from earlier work
Green algae [3] = conditions: cited from earlier work
Green algae [4] = test: Literature green algae toxicity data used for hazard ranking; assay type: cell-based; conditions: GHS
Text: as §1, §2

R. subcapitata [5] = test: Literature R. subcapitata toxicity data used for hazard ranking; assay type: cell-based, Raphidocelis subcapitata; conditions: GHS, from literature EC50 R. subcapitata 72 h
Text: as §1, §2

R. subcapitata [6] = conditions: cited from earlier work
Daphnia magna = Daphnia magna acute immobilization test (this study); assay type: in vivo; conditions: for immobility: 50 mg L^−1; for Hazard Ranking: GHS, from EC50 D. magna 48 h, this study
Procedure: The immobilization tests with D. magna were conducted following ISO guidelines using an in-house culture at the Hygiene Department at the UNINA. Organisms under 24 h old were exposed to concentrations of 1.56, 3.12, 6.25, 12.50, 25, and 50 mg L^−1 and to a negative control of freshwater media. Each concentration had four replicates containing five organisms each. The exposure was conducted at a temperature of 20 ± 1 °C and under continuous illumination of approx. 1000 lux. Immobilization was assessed at 24 and 48 h after exposure using a stereomicroscope.
(§3) Data were analyzed with R Studio for Windows (Version 2023.06.0). The effective concentrations causing 50% of the response on the organisms A. fischeri, R. subcapitata, and D. magna were estimated by fitting on dose–response models using the extension package “drc” [49]. For the data analysis of R. subcapitata and A. fischeri tests, the measurements were normalized to the control to estimate an inhibition percentage.

Raphidocelis subcapitata = Raphidocelis subcapitata growth inhibition test (this study); assay type: cell-based; conditions: for Hazard Ranking: GHS, from EC50 R. subcapitata 72 h, this study
Procedure: The growth inhibition test with R. subcapitata was conducted following ISO guidelines using an in-house culture at the Hygiene Department at the UNINA. Algal cultures were incubated in Erlenmeyer flasks at 20 ± 1 °C on a shaker at 100 rpm and under continuous daylight fluorescent tube illumination of approximately 6300 lux with […]. The initial inoculum concentration was set at 10^4 cells mL^−1, exposed to the concentrations of 1.56, 3.12, 6.25, 12.50, 25, and 50 mg L^−1 and to a negative control of freshwater media. Six replicates were set up for both the control samples and the treatments and were maintained under the same conditions as the algal culture for 72 h.
as §3

[7] = test system: Salmonella typhimurium strain TA100; test: Salmonella typhimurium mutagenicity assay; assay type: cell-based; conditions: for mutagenicity (result in words): TA100, 1.56 and 50 mg L^−1; for mutagenicity ratio: TA100, both concentrations 1.56 and 50 mg L^−1, mutagenic if ratio 2 or greater
Procedure: The mutagenicity in Salmonella typhimurium strain TA100 was assessed by observing the potential mutations that would allow the bacteria to grow without needing histidine (his-), following the protocol. For the assay, a kit obtained from ECOTOX LDS (Milan, Italy) was used to perform the test. Two exposure concentrations of 1.56 and 50 mg L^−1 of each compound were used and bromocresol purple was added as a pH indicator. Distilled water served as the negative control and sodium azide as the positive control for TA100 without S9 ([…]).
The plates were incubated at 37 °C for 3 to 5 days and sealed in hermetic plastic bags to avoid contamination. […] Wells that remained purple indicated a negative result (non-mutagenic compound).
For the test organism S. typhimurium, results were expressed as the mutagenicity ratio. This was calculated by dividing the number of revertants (his+) in the treatments by the number of naturally occurring (negative control). The treatments were considered mutagenic if the mutagenicity ratio was 2 or greater.

Aliivibrio fischeri = Aliivibrio fischeri luminescence inhibition test (this study); assay type: cell-based
Procedure: The luminescence inhibition test was performed on Allivibrio fischeri (strain NRRL-B-11177), purchased from WaterTox STD (ECOtest S.L., Valencia, Spain), and performed according to [46]. The luminescence was measured using a Microtox luminometer Model 500, (AZUR Environmental, Carlsbad, CA, USA) equipped with a cell incubated at a constant temperature of 15 ± 1 °C, and readings were taken after 30 min of exposure at a wavelength of 490 nm. The Osmotic Adjustment Solution was added to the media to adapt the marine bacterium to freshwater. […] Data were analyzed with R Studio for Windows (Version 2023.06.0). The effective concentrations causing 50% of the response on the organisms A. fischeri, R. subcapitata, and D. magna were estimated by fitting on dose–response models using the extension package “drc” [49]. For the data analysis of R. subcapitata and A. fischeri tests, the measurements were normalized to the control to estimate an inhibition percentage.

[8] = test system: A. fischeri, R. subcapitata, and D. magna; test: Summary over the species tested (A. fischeri, R. subcapitata, D. magna) and GHS classification
Procedure: as §3, §2

For `OC(Cn1cncn1)(Cn1cncn1)c1ccc(F)cc1F` [Fluconazole], the “GHS hazard category (in words)” value (D. magna [1]; from literature EC50 D. magna, EC50 > 100 mg L^−1) is listed as “not harmful”, the EC50 (D. magna [2]; 48 h ref 30) is listed as 0.002766 µg/mL (≈ 0.00903 µM) and the EC50 (D. magna [2]; 48 h ref 37) is listed as 530 µg/mL (≈ 1730 µM). For the same compound, the EC50 (Green algae [3]; 96 h ref 30) was 0.001162 µg/mL (≈ 0.00379 µM) and the EC50 (Green algae [3]; 96 h ref 37) was 55.4 µg/mL (≈ 181 µM).

For `CC(=O)N1CCN(c2ccc(OCC3COC(Cn4ccnc4)(c4ccc(Cl)cc4Cl)O3)cc2)CC1` (centres unmarked) [Ketoconazole], the “Hazard Ranking” value (D. magna [1]) was “*** (Toxic (<1 mg L^−1 ≤ 10 mg L^−1))”, the “Hazard Ranking” value (Green algae [4]; from literature EC50 green algae 72 h) was “**** (Very toxic (≤1 mg L^−1))” and the “Hazard Ranking” value (Green algae [4]; from literature EC50 green algae 96 h) was “*** (Toxic (<1 mg L^−1 ≤ 10 mg L^−1))”. For the same compound, the “Hazard Ranking” value (R. subcapitata [5]) was “**** (Very toxic (≤1 mg L^−1))”, the EC50 (R. subcapitata [6]; 72 h ref 36) was 0.28 µg/mL (≈ 0.527 µM) and the EC50 (R. subcapitata [6]; 72 h ref 40) was 0.3 µg/mL (≈ 0.565 µM). The EC50 (D. magna [2]; 48 h ref 30) was 2.39 µg/mL (≈ 4.5 µM), the EC50 (D. magna [2]; 48 h ref 34) was 6.57 µg/mL (≈ 12.4 µM) and the EC50 (D. magna [2]; 48 h ref 38) was 6.57 µg/mL (≈ 12.4 µM). For the same compound, the EC50 (D. magna [2]; 48 h ref 39, listed as ketoconazole) was 1.51 µg/mL (≈ 2.84 µM), the EC50 (D. magna [2]; 48 h ref 39) was 1.5 µg/mL (≈ 2.82 µM) and the EC50 (Green algae [3]; 72 h ref 38) was 0.28 µg/mL (≈ 0.527 µM). The EC50 (Green algae [3]; 96 h ref 30) was 4.36 µg/mL (≈ 8.2 µM).

For `N=C(N)c1ccc(OCCCC2CCN(CCCOc3ccc(C(=N)N)cc3)CC2)cc1` [T-2307], the “EC50 (effective concentration causing 50% of immobility)” value (Daphnia magna; D. magna, 48 h) was 17.93 µg/mL, the immobility (Daphnia magna; D. magna, 48 h) was 90% and the “Hazard Ranking” value (Daphnia magna) was “** (Harmful: (<10 mg L^−1 ≤ 100 mg L^−1))”. The “Hazard Ranking” value (Raphidocelis subcapitata) was “** (Harmful: (<10 mg L^−1 ≤ 100 mg L^−1))”, the “EC50 (effective concentration causing 50% growth inhibition)” value (Raphidocelis subcapitata; R. subcapitata, 72 h) was 14.34 µg/mL (≈ 32.8 µM) and the growth inhibition (Raphidocelis subcapitata; R. subcapitata, 72 h, 50 mg L^−1) was “around 82%”. The “mutagenicity (result in words)” value [7] was “non-positive mutagenicity”, the mutagenicity ratio [7] was < 2 and the “EC50 (effective concentration causing 50% luminescence inhibition)” value (Aliivibrio fischeri; A. fischeri, 30 min) was 22.58 µg/mL (≈ 51.6 µM). The luminescence inhibition (Aliivibrio fischeri; A. fischeri, 30 min, 50 mg L^−1) was ~75%.

In the case of `CC(C)(C)C(O)(CCc1ccc(Cl)cc1)Cn1cncn1` (centres unmarked) [Tebuconazole], the “Hazard Ranking” value (D. magna [1]) is given as “*** (Toxic (<1 mg L^−1 ≤ 10 mg L^−1))”, the “Hazard Ranking” value (R. subcapitata [5]) is given as “*** (Toxic (<1 mg L^−1 ≤ 10 mg L^−1))” and the EC50 (R. subcapitata [6]; 72 h ref 42) is given as 2.09 µg/mL (≈ 6.79 µM). The EC50 (D. magna [2]; 48 h ref 41) was 2.37 µg/mL (≈ 7.7 µM) and the EC50 (D. magna [2]; 48 h ref 42) was 6.75 µg/mL (≈ 21.9 µM).

For `O[C@@](Cn1cnnn1)(c1ccc(F)cc1F)C(F)(F)c1ccc(-c2ccc(OCC(F)(F)F)cc2)cn1` [VT-1161, oteseconazole], the immobility (Daphnia magna; D. magna, 48 h) was 100%, the EC50 (Daphnia magna; Daphnia magna, read-out: EC50 (effective concentration causing 50% of immobility), D. magna, 48 h) was 20.9 µg/mL (≈ 39.7 µM) and the “Hazard Ranking” value (Daphnia magna) was “** (Harmful: (<10 mg L^−1 ≤ 100 mg L^−1))”. For the same compound, the “Hazard Ranking” value (Raphidocelis subcapitata) was “** (Harmful: (<10 mg L^−1 ≤ 100 mg L^−1))”, the EC50 (Raphidocelis subcapitata; Raphidocelis subcapitata, read-out: EC50 (effective concentration causing 50% growth inhibition), R. subcapitata, 72 h) was 27.9 µg/mL (≈ 52.9 µM) and the inhibition at 50 µg/mL (Raphidocelis subcapitata; Raphidocelis subcapitata, R. subcapitata, 72 h, 50 mg L^−1) was ~65%. For the same compound, the “mutagenicity (result in words)” value [7] was “non-positive mutagenicity”, the mutagenicity ratio [7] was < 2 and the EC50 (Aliivibrio fischeri; Aliivibrio fischeri, 0.5 h, read-out: EC50 (effective concentration causing 50% luminescence inhibition), A. fischeri, 30 min) was 22.4 µg/mL (≈ 42.5 µM). For the same compound, the inhibition at 50 µg/mL (Aliivibrio fischeri; Aliivibrio fischeri, 0.5 h, A. fischeri, 30 min, 50 mg L^−1) was ~63%, the “Hazard Ranking” value (Aliivibrio fischeri; GHS, from EC50 A. fischeri 30 min, this study) was “** (Harmful: (<10 mg L^−1 ≤ 100 mg L^−1))” and the EC50 ([8]; A. fischeri, R. subcapitata, D. magna, read-out: EC50 values, range over the species tested) was 20.9 to 27.9 µg/mL (≈ 39.7 to 52.9 µM). The “GHS classification (in words)” value ([8]; EC50 values between 10 mg L^−1 and 100 mg L^−1) was “harmful”.

For `CC(C)(C)C(=O)C(Oc1ccc(Cl)cc1)n1ccnc1` (centres unmarked) [climbazole], the EC50 (D. magna [2]; exposure time not printed ref 30) is given as 15.99 µg/mL (≈ 54.6 µM).
